Converted amounts (≈) assume the structure as drawn.
Tests used:
[1] = system: S. aureus Linezolid resistant; experiment: MIC by broth microdilution, linezolid resistant S. aureus; assay type: cell-based, Staphylococcus aureus; settings: S. aureus (3 isolates) Linezolid resistant
Experimental: (§1) Whole-cell antimicrobial activity was determined by broth microdilution. Test compounds were dissolved in DMSO and diluted 1:10 in water to produce a 64 mcg/ml stock solution. Using a 96 well microtitre plate, a Microlab AT Plus 2 (Hamilton Co., Reno, Nev.) serially diluted 50 ul of the stock solution into an appropriate broth medium. Staphylococcal isolates were tested using cation adjusted Mueller Hinton broth. For S. pneumonaie testing, the Mueller Hinton broth was supplemented with 5% lysed horse blood and H. influenzae was tested with Haemophilus Test Medium. After the compounds were diluted, a 50 ul aliquot of the test isolate (˜1×10^6 cfu/ml) prepared in normal saline was added to each well of the microtitre plate. The final test concentrations ranged from 0.016-16 ug/mL. Inoculated plates were incubated at 35 °C in ambient air for 18 to 24 hours. The minimum inhibitory concentration (MIC) was determined as the lowest concentration of compound that inhibited visible growth.

[2] = system: S. aureus VISA (vancomycin intermediate Staphylococcus aureus); experiment: MIC by broth microdilution, VISA; assay type: cell-based
Experimental: as §1

[3] = system: H. influenzae BLNAR (beta lactamase negative ampicillin resistant); experiment: MIC by broth microdilution, H. influenzae BLNAR; assay type: cell-based; settings: H. influenzae (5 isolates) BLNAR; Compound A n = 4
Experimental: as §1

[4] = system: H. influenzae ClarR (clarithromycin resistant); experiment: MIC by broth microdilution, H. influenzae ClarR; assay type: cell-based; settings: H. influenzae (5 isolates) ClarR; Compound A n = 3
Experimental: as §1

[5] = system: S. aureus Macrolide^r (macrolide resistant); experiment: MIC by broth microdilution, macrolide resistant S. aureus; assay type: cell-based, Staphylococcus aureus; settings: S. aureus Macrolide^r (69 isolates); not all isolates tested against fusidic acid
Experimental: as §1

[6] = system: S. aureus Fusidic acid^r (fusidic acid resistant); experiment: MIC by broth microdilution, fusidic acid resistant S. aureus; assay type: cell-based, Staphylococcus aureus; settings: S. aureus Fusidic acid^r (6 isolates)
Experimental: as §1

[7] = system: S. aureus Mupirocin^r (mupirocin resistant); experiment: MIC by broth microdilution, mupirocin resistant S. aureus; assay type: cell-based, Staphylococcus aureus; settings: S. aureus Mupirocin^r (32 isolates); not all isolates tested against fusidic acid
Experimental: as §1

[8] = system: S. aureus MRSA (methicillin resistant Staphylococcus aureus); experiment: MIC by broth microdilution, MRSA; assay type: cell-based; settings: S. aureus MRSA (61 isolates); not all isolates tested against fusidic acid
Experimental: as §1

[9] = system: S. aureus MRSA&Mup^r (methicillin resistant & mupirocin resistant Staphylococcus aureus); experiment: MIC by broth microdilution, MRSA&Mup^r; assay type: cell-based; settings: S. aureus MRSA&Mup^r (14 isolates); not all isolates tested against fusidic acid
Experimental: as §1

[10] = S. aureus (4 isolates) VISA (vanc. MIC 4), second part of table
[11] = S. aureus VISA (6 isolates), first part of table

| MIC Range [1] [µg/mL] | MIC Range [2, 10] [µg/mL] | MIC Range [3] [µg/mL] | MIC Range [4] [µg/mL] | SMILES | MIC Range [5] [µg/mL] | MIC Range [6] [µg/mL] | MIC Range [2, 11] [µg/mL] | MIC Range [7] [µg/mL] | MIC Range [8] [µg/mL] | MIC Range [9] [µg/mL] |
| --- | --- | --- | --- | --- | --- | --- | --- | --- | --- | --- |
| 0.5 (≈ 0.668 µM) | – | 1 to 2 | – | CC[C@H]1OC(=O)[C@H](C)[C@@H](O[C@H]2C[C@@](C)(OC)[C@@H](O)[C@H](C)O2)[C@H](C)[C@@H](O[C@@H]2O[C@H](C)C[C@H](N(C)C)[C@H]2O)[C@](C)(O)C[C@@H](C)CN(C)[C@H](C)[C@@H](O)[C@]1(C)O [Azithromycin] | – | – | – | – | – | – |
| >16 | >16 | 8 to 16 | 0.5 to 1 | CO/N=C(\C(=O)N[C@@H]1C(=O)N2C(C(=O)O)=C(COC(N)=O)CS[C@H]12)c1ccco1 [Cefuroxime] | – | – | – | – | – | – |
| 0.03 to 0.06 | – | 1 (≈ 1.23 µM) | – | CC[C@H]1OC(=O)[C@H](C)C(=O)[C@H](C)[C@@H](O[C@@H]2O[C@H](C)C[C@H](N(C)C)[C@H]2O)[C@](C)(OC)C[C@@H](C)C(=O)[C@H](C)[C@H]2N(CCCCn3cnc(-c4cccnc4)c3)C(=O)O[C@]12C [Telithromycin] | – | – | – | – | – | – |

Second part, the compound before the results:

| SMILES | MIC Range [1] [µg/mL] | MIC Range [2, 10] [µg/mL] | MIC Range [3] [µg/mL] | MIC Range [4] [µg/mL] | MIC Range [5] [µg/mL] | MIC Range [6] [µg/mL] | MIC Range [2, 11] [µg/mL] | MIC Range [7] [µg/mL] | MIC Range [8] [µg/mL] | MIC Range [9] [µg/mL] |
| --- | --- | --- | --- | --- | --- | --- | --- | --- | --- | --- |
| CC1(C)S[C@@H]2[C@H](NC(=O)[C@H](N)c3ccc(O)cc3)C(=O)N2[C@H]1C(=O)O [Amoxicillin] | >32 | 8 to 32 | 4 to 16 | – | – | – | – | – | – | – |
| C=C[C@]1(C)C[C@@H](OC(=O)CSC2CC3CCC(C2)N3C)[C@]2(C)C(C)CC[C@]3(CCC(=O)[C@H]32)[C@@H](C)[C@@H]1O (stereo partly drawn) [Compound A, mutilin 14-(exo-8-methyl-8azabicyclo[3.2.1]oct-3-ylsulfanyl)-acetate] | 1 to 2 | 0.06 to 1 | 2 to 4 | 0.12 to 0.25 | 0.03 to 0.5 | <0.016 to 0.03 | <0.06 to 1 | <0.016 to 0.5 | <0.016 to 0.5 | <0.016 to 0.12 |
| CC(=O)O[C@H]1C[C@@]2(C)[C@@H](C[C@@H](O)[C@H]3[C@@]4(C)CC[C@@H](O)[C@@H](C)[C@@H]4CC[C@@]32C)/C1=C(\CCC=C(C)C)C(=O)O [Fusidic acid] | – | – | – | – | 0.12 to 1 | >16 | – | – | 0.12 to 1 | 0.12 to 0.5 |
| C[C@H]1COc2c(N3CCN(C)CC3)c(F)cc3c(=O)c(C(=O)O)cn1c23 [Levofloxacin] | 16 (≈ 44.3 µM) | 8 to 64 | <0.016 | <0.016 | – | – | – | – | – | – |
| C/C(=C\C(=O)OCCCCCCCCC(=O)O)C[C@@H]1OC[C@H](C[C@@H]2O[C@H]2[C@@H](C)[C@H](C)O)[C@@H](O)[C@H]1O [Mupirocin] | – | – | – | – | – | – | <1 | – | – | – |

From US20080171766A1, “Novel Method” (SMITHKLINE BEECHAM CORPORATION, priority 2005, published 2008)
